# Test system: 521955-158-R2-J5-PDC complex spheroid viability
# Experiment: Anticancer human tumor 521955-158-R2-J5-PDC patient-derived pancreatic carcinoma cell line growth inhibition
# Conditions: for IC50: curve of first compound; for viability, T/C: stronger effect = lower value
# Procedure, shortened: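 Complex spheroids of tumor cells with HUVEC and human MSCs, exposed to iadademstat combined with other agents. Each agent tested in half-log steps from near clinical Cmax (else 10 microM top), DMSO ≤0.25%.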
# [1] = second compound 0.1 µM, first compound 0.00316 µM
# [2] = second compound 0.1 µM, first compound 0.01 µM
# [3] = second compound 0.1 µM, first compound 0.0316 µM
# [4] = second compound 0.1 µM, first compound 0.1 µM
# [5] = second compound 0.316 µM, first compound 0.00316 µM
# [6] = second compound 0.316 µM, first compound 0.01 µM
# [7] = second compound 0.316 µM, first compound 0.0316 µM
# [8] = second compound 0.316 µM, first compound 0.1 µM
# [9] = second compound 1 µM, first compound 0.00316 µM
# [10] = second compound 1 µM, first compound 0.01 µM
# [11] = second compound 1 µM, first compound 0.0316 µM
# [12] = second compound 1 µM, first compound 0.1 µM
# [13] = second compound 3.16 µM, first compound 0.00316 µM
# [14] = second compound 3.16 µM, first compound 0.01 µM
# [15] = second compound 3.16 µM, first compound 0.0316 µM
# [16] = second compound 3.16 µM, first compound 0.1 µM
# [17] = second compound 10 µM, first compound 0.00316 µM
# [18] = second compound 10 µM, first compound 0.01 µM
# [19] = second compound 10 µM, first compound 0.0316 µM
# [20] = second compound 10 µM, first compound 0.1 µM
# 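Further: spheroids exposed to agents for seven days.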
# 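Wherever viability, T/C is given: percent of DMSO vehicle control luminescence viability.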
smiles,measurement,setting,value
CC[C@@]1(O)C(=O)OCc2c1cc1n(c2=O)Cc2cc3c(CN(C)C)c(O)ccc3nc2-1 + NC1CCC(NC2CC2c2ccccc2)CC1,IC50,second compound 0.1 µM,4.87 nM
same,IC50,second compound 0.316 µM,4.89 nM
same,IC50,second compound 1 µM,4.35 nM
same,IC50,second compound 3.16 µM,4.78 nM
same,IC50,second compound 10 µM,4.55 nM
same,"viability, T/C","second compound 0.1 µM, first compound 0.000316 µM",100%
same,"viability, T/C","second compound 0.1 µM, first compound 0.001 µM",104%
same,"viability, T/C",[1],72.3%
same,"viability, T/C",[2],12.8%
same,"viability, T/C",[3],7.11%
same,"viability, T/C",[4],5.58%
same,"viability, T/C","second compound 0.316 µM, first compound 0.000316 µM",101%
same,"viability, T/C","second compound 0.316 µM, first compound 0.001 µM",97.2%
same,"viability, T/C",[5],72.9%
same,"viability, T/C",[6],12.2%
same,"viability, T/C",[7],6.01%
same,"viability, T/C",[8],4.82%
same,"viability, T/C","second compound 1 µM, first compound 0.000316 µM",97.3%
same,"viability, T/C","second compound 1 µM, first compound 0.001 µM",97.5%
same,"viability, T/C",[9],64.7%
same,"viability, T/C",[10],11.7%
same,"viability, T/C",[11],6.84%
same,"viability, T/C",[12],5.45%
same,"viability, T/C","second compound 3.16 µM, first compound 0.000316 µM",96.7%
same,"viability, T/C","second compound 3.16 µM, first compound 0.001 µM",94.9%
same,"viability, T/C",[13],70.5%
same,"viability, T/C",[14],13.2%
same,"viability, T/C",[15],6.25%
same,"viability, T/C",[16],4.49%
same,"viability, T/C","second compound 10 µM, first compound 0.000316 µM",104%
same,"viability, T/C","second compound 10 µM, first compound 0.001 µM",105%
same,"viability, T/C",[17],67%
same,"viability, T/C",[18],13.1%
same,"viability, T/C",[19],6.18%
same,"viability, T/C",[20],4.49%
COc1cc(C2c3cc4c(cc3C(OC3OC5COC(C)OC5C(O)C3O)C3COC(=O)C23)OCO4)cc(OC)c1O (stereo not given) + NC1CCC(NC2CC2c2ccccc2)CC1,IC50,second compound 0.1 µM,71.4 nM
same,IC50,second compound 0.316 µM,76.7 nM
same,IC50,second compound 1 µM,59.8 nM
same,IC50,second compound 3.16 µM,79.1 nM
same,IC50,second compound 10 µM,72.2 nM
same,"viability, T/C","second compound 0.1 µM, first compound 0.00949 µM",106%
same,"viability, T/C","second compound 0.1 µM, first compound 0.03 µM",92.6%
same,"viability, T/C","second compound 0.1 µM, first compound 0.0949 µM",35.4%
same,"viability, T/C","second compound 0.1 µM, first compound 0.3 µM",15.4%
same,"viability, T/C","second compound 0.1 µM, first compound 0.949 µM",9.48%
same,"viability, T/C","second compound 0.1 µM, first compound 3 µM",7.12%
same,"viability, T/C","second compound 0.316 µM, first compound 0.00949 µM",102%
same,"viability, T/C","second compound 0.316 µM, first compound 0.03 µM",88.5%
same,"viability, T/C","second compound 0.316 µM, first compound 0.0949 µM",40.6%
same,"viability, T/C","second compound 0.316 µM, first compound 0.3 µM",15.8%
same,"viability, T/C","second compound 0.316 µM, first compound 0.949 µM",10.4%
same,"viability, T/C","second compound 0.316 µM, first compound 3 µM",6.65%
same,"viability, T/C","second compound 1 µM, first compound 0.00949 µM",93.3%
same,"viability, T/C","second compound 1 µM, first compound 0.03 µM",77.7%
same,"viability, T/C","second compound 1 µM, first compound 0.0949 µM",30.6%
same,"viability, T/C","second compound 1 µM, first compound 0.3 µM",16.2%
same,"viability, T/C","second compound 1 µM, first compound 0.949 µM",8.2%
same,"viability, T/C","second compound 1 µM, first compound 3 µM",6.77%
same,"viability, T/C","second compound 3.16 µM, first compound 0.00949 µM",96.6%
same,"viability, T/C","second compound 3.16 µM, first compound 0.03 µM",91.3%
same,"viability, T/C","second compound 3.16 µM, first compound 0.0949 µM",41.2%
same,"viability, T/C","second compound 3.16 µM, first compound 0.3 µM",17.7%
same,"viability, T/C","second compound 3.16 µM, first compound 0.949 µM",9.09%
same,"viability, T/C","second compound 3.16 µM, first compound 3 µM",7.34%
same,"viability, T/C","second compound 10 µM, first compound 0.00949 µM",99.4%
same,"viability, T/C","second compound 10 µM, first compound 0.03 µM",94.4%
same,"viability, T/C","second compound 10 µM, first compound 0.0949 µM",35.6%
same,"viability, T/C","second compound 10 µM, first compound 0.3 µM",18%
same,"viability, T/C","second compound 10 µM, first compound 0.949 µM",7.96%
same,"viability, T/C","second compound 10 µM, first compound 3 µM",6.31%
Nc1ncn(C2CC(O)C(CO)O2)c(=O)n1 (stereo not given) + NC1CCC(NC2CC2c2ccccc2)CC1,IC50,second compound 0.1 µM,> 1000 nM
same,IC50,second compound 0.316 µM,> 1000 nM
same,IC50,second compound 1 µM,> 1000 nM
same,IC50,second compound 3.16 µM,941 nM
same,IC50,second compound 10 µM,> 1000 nM
same,"viability, T/C",[1],101%
same,"viability, T/C",[2],108%
same,"viability, T/C",[3],93.6%
same,"viability, T/C",[4],79.7%
same,"viability, T/C","second compound 0.1 µM, first compound 0.316 µM",69.6%
same,"viability, T/C","second compound 0.1 µM, first compound 1 µM",64.2%
same,"viability, T/C",[5],97.4%
same,"viability, T/C",[6],96%
same,"viability, T/C",[7],85.6%
same,"viability, T/C",[8],83.4%
same,"viability, T/C","second compound 0.316 µM, first compound 0.316 µM",63%
same,"viability, T/C","second compound 0.316 µM, first compound 1 µM",55.3%
same,"viability, T/C",[9],99.3%
same,"viability, T/C",[10],90.1%
same,"viability, T/C",[11],85.3%
same,"viability, T/C",[12],74.4%
same,"viability, T/C","second compound 1 µM, first compound 0.316 µM",60.5%
same,"viability, T/C","second compound 1 µM, first compound 1 µM",56.3%
same,"viability, T/C",[13],96.4%
same,"viability, T/C",[14],95.4%
same,"viability, T/C",[15],93.1%
same,"viability, T/C",[16],75.4%
same,"viability, T/C","second compound 3.16 µM, first compound 0.316 µM",59.1%
same,"viability, T/C","second compound 3.16 µM, first compound 1 µM",49%
same,"viability, T/C",[17],95.3%
same,"viability, T/C",[18],91%
same,"viability, T/C",[19],92.8%
same,"viability, T/C",[20],76.5%
same,"viability, T/C","second compound 10 µM, first compound 0.316 µM",62.5%
same,"viability, T/C","second compound 10 µM, first compound 1 µM",51.6%
